Measurements taken from patent publication US11530206B2, “Phenylaminopyrimidine amide autophagy inhibitors and methods of use thereof” (Deciphera Pharmaceuticals, LLC, priority 2019, dated 2022).

What was measured:
ULK1 kinase = molecular target: T1, ULK1 kinase (Homo sapiens, UniProt O75385, E37A/K38A); assay: Biochemical assay for ULK1.3 (coupled pyruvate kinase/lactate dehydrogenase assay, peptide substrate); details: 0.1 nM ULK1 (residues 1-283), 1 mM ATP
T1 construct: purchased Beryllium
T1 sequence (O75385 1-283 E37A/K38A): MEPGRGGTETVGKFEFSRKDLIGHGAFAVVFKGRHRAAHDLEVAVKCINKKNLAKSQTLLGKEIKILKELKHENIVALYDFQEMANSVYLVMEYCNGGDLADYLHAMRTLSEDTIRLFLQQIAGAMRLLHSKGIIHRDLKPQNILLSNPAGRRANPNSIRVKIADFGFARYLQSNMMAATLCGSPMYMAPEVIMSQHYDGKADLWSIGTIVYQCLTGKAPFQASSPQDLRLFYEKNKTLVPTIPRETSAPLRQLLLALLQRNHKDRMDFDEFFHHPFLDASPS
Protocol: Biochemical Assay for ULK1.3 (SEQ. ID NO: 2)
Inhibition of ULK1 was measured by adding serial diluted test compound (final assay concentration of 1% DMSO). A decrease in absorption at 340 nm was monitored continuously for 6 hours at 30° C. on a multi-mode microplate reader (BioTek). The reaction rate was calculated using the 2-3 h time frame. The reaction rate at each concentration of compound was converted to percent inhibition using controls (i.e. reaction with no test compound and reaction with a known inhibitor) and IC50 values were calculated using software routines in Prism (GraphPad software).

ULK kinase [1] = assay: pATG13 levels of mutant KRas A549 cells after treatment with ULK inhibitors in combination with trametinib (ELISA); assay type: cell-based, human; details: A549 (KRAS mutant) lung cancer cells, 250 nM trametinib, overnight, pS318-ATG13
Protocol: Cellular Inhibition of ULK Kinase Substrate ATG13 Protein pATG13 Levels of Mutant KRas A549 Cells after Treatment with ULK Inhibitors in Combination with Trametinib
(§1) A549 (KRAS mutant) human lung cancer cells (6,000 cells/well) were added to a 384-well tissue-culture treated plate in 50 μL of pre-warmed DMEM medium supplemented with 10% characterized fetal bovine serum (Invitrogen, Carlsbad, Calif.), 100 units/mL penicillin G, and 100 μg/mL streptomycin and allowed to grow overnight at 37° C., 5% CO2, and 95% humidity. The following day, 10 μL of media containing trametinib or DMSO as a control was added to wells. […] A dose response of a test compound (0.6 μL per well) was added. DMSO (0.6 μL) was added to control wells. The plate was briefly shaken to mix wells and then incubated at 37° C. overnight. The next day, the media was aspirated and cells were washed with Dulbecco's Phosphate Buffered Saline (Gibco). Cells were lysed using MPER lysis buffer (Pierce, Rockford, Ill.) containing Halt Phosphatase and Protease Inhibitors (Pierce, Rockford, Ill.) and Phosphatase inhibitor cocktail 2 (Sigma, St. Louis, Mo.) at 4° C. for 10 minutes with shaking.
(§2) Plate wells were washed with ELISA wash buffer. Cell lysate was added to wells and incubated at room temperature for 2 hours. Plate wells were washed with ELISA wash buffer. […] Plate wells were washed with ELISA wash buffer. […] Plate wells were washed with ELISA wash buffer. […] The reaction was stopped with 2N Sulfuric Acid. The plate was analyzed at on a plate reader measuring absorbance at 450 nm and 540 nm (background). Signal was calculated by first subtracting the background absorbance at 540 nm from the absorbance at 450 nm for each well. Next, the background corrected absorbance at 450 nm from blank wells was subtracted from test wells. Data was compared to control wells to determine % ATG13 phosphorylation. GraphPad Prism was used to calculate IC50 values.

ULK kinase [2] = assay: pATG13 levels of mutant KRas MiaPaCa-2 cells after treatment with ULK inhibitors in combination with trametinib (ELISA); assay type: cell-based, human; details: MiaPaCa-2 pancreatic cancer cells, 250 nM trametinib, overnight, pS318-ATG13
Protocol: as §1, with “MiaPaCa-2” for “A549 (KRAS mutant)”, “pancreatic” for “lung”, “(10000” for “(6,000”, “G, 100 µg/mL streptomycin,” for “G,”, “2.5% Horse Serum” for “100 μg/mL streptomycin”
as §2

LRRK2 kinase = molecular target: T2, LRRK2 kinase (Homo sapiens, UniProt Q5S007); assay: Biochemical assay for LRRK2 (coupled pyruvate kinase/lactate dehydrogenase assay); details: 26.4 nM LRRK2 (residues 970-2528), peptide substrate, 1 mM ATP
T2 construct: purchased Thermo Fisher
T2 sequence (Q5S007 with tags, fused parts or gaps): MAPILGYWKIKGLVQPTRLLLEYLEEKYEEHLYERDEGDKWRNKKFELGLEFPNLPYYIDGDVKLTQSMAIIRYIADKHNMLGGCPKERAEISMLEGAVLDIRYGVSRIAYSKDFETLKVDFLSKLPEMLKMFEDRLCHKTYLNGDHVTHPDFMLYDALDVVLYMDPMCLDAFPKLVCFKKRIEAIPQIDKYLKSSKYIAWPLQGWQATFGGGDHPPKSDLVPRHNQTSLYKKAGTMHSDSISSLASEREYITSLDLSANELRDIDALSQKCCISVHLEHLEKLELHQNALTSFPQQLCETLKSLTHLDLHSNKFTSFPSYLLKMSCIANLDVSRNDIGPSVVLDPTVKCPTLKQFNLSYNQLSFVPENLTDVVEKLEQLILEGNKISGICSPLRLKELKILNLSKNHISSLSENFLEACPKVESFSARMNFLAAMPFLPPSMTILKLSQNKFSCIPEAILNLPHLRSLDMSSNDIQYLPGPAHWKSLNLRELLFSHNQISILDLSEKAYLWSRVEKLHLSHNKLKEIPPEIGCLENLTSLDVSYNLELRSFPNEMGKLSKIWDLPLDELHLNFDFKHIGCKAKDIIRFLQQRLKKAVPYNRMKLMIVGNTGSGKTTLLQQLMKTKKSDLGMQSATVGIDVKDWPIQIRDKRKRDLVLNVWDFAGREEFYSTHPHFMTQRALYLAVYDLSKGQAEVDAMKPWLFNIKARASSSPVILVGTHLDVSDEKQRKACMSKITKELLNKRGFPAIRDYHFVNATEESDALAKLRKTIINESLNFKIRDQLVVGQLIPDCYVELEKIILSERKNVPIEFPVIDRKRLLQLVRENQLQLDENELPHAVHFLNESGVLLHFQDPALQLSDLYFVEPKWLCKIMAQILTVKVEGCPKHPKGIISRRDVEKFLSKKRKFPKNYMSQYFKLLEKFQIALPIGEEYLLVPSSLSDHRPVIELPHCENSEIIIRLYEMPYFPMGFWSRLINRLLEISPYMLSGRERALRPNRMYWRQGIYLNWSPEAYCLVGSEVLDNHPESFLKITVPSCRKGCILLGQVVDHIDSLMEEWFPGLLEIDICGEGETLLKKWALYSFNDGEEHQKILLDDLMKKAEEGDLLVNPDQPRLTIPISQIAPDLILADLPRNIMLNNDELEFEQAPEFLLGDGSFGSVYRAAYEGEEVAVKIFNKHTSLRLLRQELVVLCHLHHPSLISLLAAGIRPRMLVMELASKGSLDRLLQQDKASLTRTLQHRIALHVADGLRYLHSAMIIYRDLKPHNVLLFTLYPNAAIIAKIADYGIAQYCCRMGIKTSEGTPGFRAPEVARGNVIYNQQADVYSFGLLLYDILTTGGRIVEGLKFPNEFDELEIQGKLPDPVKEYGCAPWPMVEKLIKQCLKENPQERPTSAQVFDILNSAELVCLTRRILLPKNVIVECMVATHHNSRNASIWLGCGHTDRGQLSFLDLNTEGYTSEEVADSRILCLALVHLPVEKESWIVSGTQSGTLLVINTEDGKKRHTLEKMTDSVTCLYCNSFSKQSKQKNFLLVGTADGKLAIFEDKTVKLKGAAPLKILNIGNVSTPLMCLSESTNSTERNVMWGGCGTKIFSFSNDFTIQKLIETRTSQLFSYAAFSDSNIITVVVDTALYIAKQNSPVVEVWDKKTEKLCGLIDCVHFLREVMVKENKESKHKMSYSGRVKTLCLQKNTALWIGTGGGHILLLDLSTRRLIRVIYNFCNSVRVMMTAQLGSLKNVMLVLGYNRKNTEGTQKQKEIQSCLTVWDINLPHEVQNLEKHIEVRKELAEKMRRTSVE
Protocol: Example 138. Biochemical Assay for LRRK2 (SEQ. ID NO: 4)
Activity of LRRK2 kinase was determined spectroscopically using a coupled pyruvate kinase/lactate dehydrogenase assay that continuously monitors the ATP hydrolysis-dependent oxidation of NADH (e.g., Schindler et al. Science (2000) 289: 1938-1942). Assays were conducted in 384-well plates (100 μL final volume) using 26.4 nM LRRK2 (Thermo Fisher), 0.1 mM peptide substrate ([…] (SEQ ID NO: 6)), 1.5 units pyruvate kinase, 2.1 units lactate dehydrogenase, 1 mM phosphoenol pyruvate, 0.28 mM NADH and 1 mM ATP in assay buffer (100 mM Tris, pH 7.5, 15 mM MgCl2, 0.5 mM DTT, 0.004% (w/v) BSA, and 0.004% Triton X-100). Inhibition of LRRK2 was measured by adding serial diluted test compound (final assay concentration of 1% DMSO). A decrease in absorption at 340 nm was monitored continuously for 6 hours at 30° C. on a multi-mode microplate reader (BioTek). The reaction rate was calculated using the 2-3 h time frame. The reaction rate at each concentration of compound was converted to percent inhibition using controls (i.e. reaction with no test compound and reaction with a known inhibitor) and IC50 values were calculated using software routines in Prism (GraphPad software).

Structure (SMILES) | IC50 (ULK1 kinase) [nM] | IC50 (ULK kinase [1]) [nM] | IC50 (ULK kinase [2]) [nM] | IC50 (LRRK2 kinase) [nM]
CN1CCN(c2ccc(Nc3ncc(Br)c(NCCCN4CCCCC4=O)n3)c(C3CC3)c2)CC1 [Example 26] | 1 to 25 | 100 to 300 | 10 to 100 | 
CN1CCN(c2ccc(Nc3ncc(Cl)c(NCCCN4CCCCC4=O)n3)c(C3CC3)c2)CC1 [Example 27] | 25 to 100 | 100 to 300 | 100 to 300 | 
CCN1CCN(c2ccc(Nc3ncc(C(F)(F)F)c(NCCCN4CCCCC4=O)n3)c(C(C)C)c2)CC1 [Example 28] | 1 to 25 | 100 to 300 | 100 to 300 | 
CCN1CCN(c2ccc(Nc3ncc(Br)c(NCCCN4CCCCC4=O)n3)c(C(C)C)c2)CC1 [Example 30] | 25 to 100 | 300 to 600 | 100 to 300 | 
CCc1cc(N2CCCN(C)CC2)ccc1Nc1ncc(C(F)(F)F)c(NCCCN2CCCCC2=O)n1 [Example 31] | 1 to 25 | 300 to 600 | 100 to 300 | 
CC(=O)N1CCN(c2ccc(Nc3ncc(C(F)(F)F)c(NCCCN4CCCCC4=O)n3)c(C3CC3)c2)CC1 [Example 36, 1-(3-((2-((4-(4-acetylpiperazin-1-yl)-2-cyclopropylphenyl)amino)-5-(trifluoromethyl)pyrimidin-4-yl)amino)propyl)piperidin-2-one] | 25 to 100 | > 600 | > 600 | 
CN1CCN(c2ccc(Nc3ncc(Br)c(NCCCN4CCCOC4=O)n3)c(C3CC3)c2)CC1 [Example 40] | 1 to 25 | 10 to 100 | 10 to 100 | 
O=C1OCCCN1CCCNc1nc(Nc2ccc(N3CCN4CCC[C@@H]4C3)cc2C2CC2)ncc1C(F)(F)F [Example 42] | 1 to 25 | 10 to 100 | 10 to 100 | 
CCc1cc(N2CCN(C)CC2)ccc1Nc1ncc(Br)c(NCCCN2CCCOC2=O)n1 [Example 44] | 1 to 25 | 10 to 100 | 10 to 100 | 
CCc1cc(N2CC[C@H](C#N)C2)ccc1Nc1ncc(C(F)(F)F)c(NCCCN2CCCCC2=O)n1 [Example 48] | 100 to 500 |  |  | 100 to 300
CN1CCN(c2ccc(Nc3ncc(C(F)(F)F)c(NCCCN4CCCCC4=O)n3)c(C3CC3)c2)CC1=O [Example 49] | 100 to 500 |  |  | 100 to 300
CCc1cc(N2CCN(C)CC2=O)ccc1Nc1ncc(C(F)(F)F)c(NCCCN2CCCOC2=O)n1 [Example 56] | 25 to 100 |  |  | 100 to 300
CCc1cc(N2CCN(C)CC2)ccc1Nc1ncc(C2CC2)c(NCCCN2CCCOCC2=O)n1 [Example 61] | > 500 |  |  | > 600
O=C1COCCCN1CCCNc1nc(Nc2ccc(N3CCNCC3)cc2C2CC2)ncc1C(F)(F)F [Example 62] | 1 to 25 | 100 to 300 | 10 to 100 | 
CCc1cc(N2CCN(C)CC2)c(F)cc1Nc1ncc(C(F)(F)F)c(NCCCN2CCCOCC2=O)n1 [Example 64] | 100 to 500 |  |  | 1 to 100
CCc1cc(N2CCN(C)CC2)ncc1Nc1ncc(C(F)(F)F)c(NCCCN2CCOCCC2=O)n1 [Example 67] | 1 to 25 | 100 to 300 | 100 to 300 | 
Cc1cc(N2C[C@H]3C[C@@H]2CO3)ccc1Nc1ncc(C(F)(F)F)c(NCCCN2CCOCCC2=O)n1 [Example 78] | 100 to 500 |  |  | 100 to 300

Structure (SMILES) | IC50 (ULK1 kinase) [nM] | IC50 (ULK kinase [1]) [nM] | IC50 (ULK kinase [2]) [nM] | IC50 (LRRK2 kinase) [nM]
CCc1cc(N2CCN(C)CC2)ccc1Nc1ncc(Cl)c(NCCCN2CCOCCC2=O)n1 [Example 80] | 25 to 100 | > 600 | 100 to 300 | 
CN1CCN(c2ccc(Nc3ncc(Br)c(NCCCN4CCOCCC4=O)n3)c(C3CC3)c2)CC1 [Example 81] | 1 to 25 | 100 to 300 | 10 to 100 | 
CN1CCN(c2ccc(Nc3ncc(Cl)c(NCCCN4CCOCCC4=O)n3)c(C3CC3)c2)CC1 [Example 82] | 25 to 100 | 100 to 300 | 100 to 300 | 
CC(C)c1cc(N2CCN(C)CC2)ccc1Nc1ncc(Cl)c(NCCCN2CCOCCC2=O)n1 [Example 88] | 25 to 100 | 300 to 600 | 100 to 300 | 
CCc1cc(N2CC[C@@H](C#N)C2)ccc1Nc1ncc(C(F)(F)F)c(NCCCN2CCCCC2=O)n1 [Example 93] | 100 to 500 |  |  | 100 to 300
CCc1cc(N2CCN(C)CC2)ccc1Nc1ncc(Br)c(NCCCN2CCCOCC2=O)n1 [Example 100] | 25 to 100 | 100 to 300 | 100 to 300 | 
CN1CCN(c2ccc(Nc3cc(NCCCN4CCOCCC4=O)c(C(F)(F)F)cn3)c(C3CC3)c2)CC1 [Example 101] | 1 to 25 | 300 to 600 | > 600 | 
CN1CCN(c2ccc(Nc3cc(NCCCN4CCCOC4=O)c(C(F)(F)F)cn3)cc2)CC1 [Example 102] | 1 to 25 | 100 to 300 | 100 to 300 | 
CN1CCN(c2ccc(Nc3cc(NCCCN4CCCCC4=O)c(C(F)(F)F)cn3)cc2)CC1 [Example 103] | 1 to 25 | 10 to 100 | 10 to 100 | 
CN1CCN(c2ccc(Nc3cc(NCCCN4CCOCCC4=O)c(C(F)(F)F)cn3)cc2)CC1 [Example 110] | 1 to 25 | 100 to 300 | 10 to 100 | 
CN1C2CCC1CN(c1ccc(Nc3ncc(C(F)(F)F)c(NCCCN4CCCCC4=O)n3)c(C3CC3)c1)C2 [Example 130] | 25 to 100 | 300 to 600 | 300 to 600 | 
CN(C)CC1CN(c2ccc(Nc3ncc(C(F)(F)F)c(NCCCN4CCOCCC4=O)n3)c(C3CC3)c2)C1 [Example 137] | 1 to 25 | 100 to 300 | 10 to 100 | 
CCc1cc(C2CCN(C)CC2)ccc1Nc1ncc(C(F)(F)F)c(NCCCN2CCOCCC2=O)n1 [Example 146] | 25 to 100 |  |  | 
CCc1cc(N2CC3CCC(C2)N3)ccc1Nc1ncc(C(F)(F)F)c(NCCCN2CCOCCC2=O)n1 [Example 150] | 1 to 25 | 100 to 300 | 10 to 100 | 
CN(C)CC1CN(c2ccc(Nc3ncc(C(F)(F)F)c(NCCCN4CCCCC4=O)n3)c(C3CC3)c2)C1 [Example 151] | 1 to 25 |  |  | 
CCc1cc(N2CC(CN(C)C)C2)ccc1Nc1ncc(C(F)(F)F)c(NCCCN2CCOCCC2=O)n1 [Example 152] | 1 to 25 |  |  | 
